In patent US20240368133A1, “Compounds for the Treatment of Pain, in Particular, Neuropathic Pain, and/or Other Diseases or Disorders that are Associated with AT2R and/or AT2R Mediated Signaling” (Confo Therapeutics N.V., priority 2021, published 2024):

How the values were obtained:
[1] = target: human AT1R (Homo sapiens (Human), UniProt P30556); assay: Counterscreen radioligand binding assay, displacement of 125I-[Sar1, Ile8]-Angiotensin II, hAT1R WT; conditions: for inhibition at 1 µM: read-out: % Displaced radioligand at 1 μM; for inhibition at 10 µM: read-out: % Displaced radioligand at 10 μM; for IC50: HEK-293 cell membranes, read-out: Binding affinity On hAT1R IC50
In short: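 Compounds displaced 0.05 nM 125I-[Sar1, Ile8]-Ang II from human AT1R in HEK-293 membranes (1 h, 25° C; Tris/MgCl2/EDTA/BSA buffer, pH 7.4). Readout was filtration and scintillation counting, with non-specific binding set by 10 μM [Sar1]-Ang II. Values are % displacement at 1 μM and […], or IC50 from eight-point four-parameter fits.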

[2] = target: human AT2R fused to Cb23 (Homo sapiens, UniProt P50052); assay: Radioligand binding assay, displacement of 125I-[Sar1, Ile8]-Angiotensin II, hAT2R Cb23; conditions: displacement of 125I-[Sar1, Ile8]-Angiotensin II, human AT2R fused to Cb23, HEK-293 cell membrane preparations; read-out: Binding affinity on hAT2R_Cb23 IC50
In short: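 Membranes from HEK-293 cells expressing human AT2R fused to Cb23 were incubated with 0.05 nM 125I-[Sar1, Ile8]-Angiotensin II in 100 μL buffer (50 mM Tris, 5 mM MgCl2, 1 mM EDTA, 0.1% BSA, pH 7.4) for one hour at 25° C. Ligands were tested as eight-point dose-response curves in duplicate, with C21 and Angiotensin II as references.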

[3] = 125I-[Sar1, Ile8]-Ang II, compound at 1 μM, semi-quantitative score
[4] = 125I-[Sar1, Ile8]-Ang II, compound at 10 μM, semi-quantitative score

Sequence of human AT1R (P30556 whole entry): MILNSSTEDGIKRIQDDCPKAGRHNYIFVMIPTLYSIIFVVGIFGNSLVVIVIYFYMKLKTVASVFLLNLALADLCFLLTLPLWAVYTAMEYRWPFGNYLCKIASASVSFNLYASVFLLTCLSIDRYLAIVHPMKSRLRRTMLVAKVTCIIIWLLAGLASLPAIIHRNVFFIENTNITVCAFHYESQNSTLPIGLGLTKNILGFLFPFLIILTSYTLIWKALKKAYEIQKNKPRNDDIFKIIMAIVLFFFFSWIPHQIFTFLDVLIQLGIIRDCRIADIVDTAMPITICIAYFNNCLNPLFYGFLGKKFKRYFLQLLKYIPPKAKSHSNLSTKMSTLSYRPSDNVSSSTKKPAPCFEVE
Sequence of human AT2R fused to Cb23 (P50052 whole entry, looked up, the tested form may be a part): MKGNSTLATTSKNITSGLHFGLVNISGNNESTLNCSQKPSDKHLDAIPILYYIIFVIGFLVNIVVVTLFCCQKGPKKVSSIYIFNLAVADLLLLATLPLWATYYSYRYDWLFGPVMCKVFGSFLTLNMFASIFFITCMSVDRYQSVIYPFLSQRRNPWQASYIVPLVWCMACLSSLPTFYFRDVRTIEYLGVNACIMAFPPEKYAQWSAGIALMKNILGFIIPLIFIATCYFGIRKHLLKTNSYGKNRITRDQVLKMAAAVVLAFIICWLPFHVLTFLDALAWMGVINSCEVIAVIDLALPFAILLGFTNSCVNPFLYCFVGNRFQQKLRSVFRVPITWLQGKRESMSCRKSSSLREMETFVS

SMILES	inhibition at 1 µM [1, 3] [%]	inhibition at 10 µM [1, 4] [%]	IC50 [2] [µM]	% Displaced radioligand at 1 μM [1, 3]	% Displaced radioligand at 10 μM [1, 4]	IC50 [1] [µM]
Cc1cnc(CN2C(C)CN(c3cc(CC(C)C)cc(F)c3-c3nn[nH]n3)CC2C)s1 (centres unmarked) [Compound A-224, 2-[[4-[3-fluoro-5-isobutyl-2-(2H-tetrazol-5-yl)phen-yl]-2,6-dimethyl-piperazin-1-yl]-methyl]-5-methyl-thiazole]	< 30	< 30	0.0922	–	–	–
Cc1cnc(C(C)N2CCN(c3cc(CC(C)C)cc(F)c3-c3nn[nH]n3)CC2)s1 (centres unmarked) [Compound A-225, 2-[1-[4-[3-fluoro-5-isobutyl-2-(2H-tetrazol-5-yl)phen-yl]piperazin-1-yl]-ethyl]-5-methyl-thiazole]	–	–	0.0541	* (* <30%)	* (* <30%)	–
Cc1cnc(C(C)N2CCN(c3cc(CC(C)C)cc(F)c3-c3nn[nH]n3)C[C@@H]2C)s1 (stereo partly drawn) [Compound A-226, 2-[1-[(2S)-4-[3-fluoro-5-isobutyl-2-(2H-tetrazol-5-yl)phenyl]-2-methyl-piperazin-1-yl]ethyl]-5-methyl-thiazole]	< 30	< 30	0.0372	–	–	–
CC(C)Cc1ccc(-c2nn[nH]n2)c(N2CCCN(Cc3cccnn3)CC2)c1 [Compound A-230, 1-[5-isobutyl-2-(2H-tetrazol-5-yl)-phenyl]-4-(pyrid-azin-3-ylmethyl)-1,4-diazepane]	< 30	< 30	1.23	–	–	–
CC(C)Cc1cc(F)c(-c2nn[nH]n2)c(N2CCCN(Cc3cccnn3)CC2)c1 [Compound A-231, 1-[3-fluoro-5-isobutyl-2-(2H-tetrazol-5-yl)phenyl]-4-(pyridazin-3-ylmethyl)-1,4-diazepane]	< 30	30 to 50	0.368	–	–	18.9
CC(C)Cc1ccc(-c2nn[nH]n2)c(N2CC3CN(Cc4cccnn4)CC3C2)c1 (centres unmarked) [Compound A-232, 5-[5-isobutyl-2-(2H-tetrazol-5-yl)-phenyl]-2-(pyrid-azin-3-ylmethyl)-1,3,3a,4,6,6a-hexahydropyrrolo-[3,4-c]pyrrole]	< 30	< 30	2.67	–	–	–
CC(C)Cc1cc(F)c(-c2nn[nH]n2)c(N2CC3CN(Cc4cccnn4)CC3C2)c1 (centres unmarked) [Compound A-233, 5-[3-fluoro-5-isobutyl-2-(2H-tetrazol-5-yl)phenyl]-2-(pyridazin-3-ylmethyl)-1,3,3a,4,6,6a-hexahydropyrrolo[3,4-c]pyrrole]	< 30	< 30	1.31	–	–	–
CC(C)Cc1ccc(-c2nn[nH]n2)c(C2CCN(Cc3cccnn3)CC2)c1 [Compound A-234, 3-[[4-[5-isobutyl-2-(2H-tetrazol-5-yl)-phenyl]-1-piperid-yl]methyl]pyrid-azine]	< 30	< 30	2.02	–	–	–
CC(C)Cc1ccc(-c2nn[nH]n2)c(C2CCN(Cc3cccnn3)C2)c1 (centres unmarked) [Compound A-235, 3-[[3-[5-isobutyl-2-(2H-tetrazol-5-yl)-phenyl]pyrrolidin-1-yl]methyl]pyrid-azine]	< 30	< 30	6.89	–	–	–
CC(C)Cc1ccc(-c2nn[nH]n2)c(N2CC(NCc3cccnn3)C2)c1 [Compound A-236, 1-(5-isobutyl-2-(2H-tetrazol-5-yl)-phenyl)-N-(pyrid-azin-3-ylmethyl)-azetidin-3-amine]	< 30	< 30	1.01	–	–	–
CC(C)Cc1ccc(-c2nn[nH]n2)c(C(=O)N2CCN(Cc3cccnn3)CC2)c1 [Compound A-239, [5-isobutyl-2-(2H-tetrazol-5-yl)phenyl]-[4-(pyridazin-3-ylmethyl)piperazin-1-yl]methanone]	< 30	< 30	2.57	–	–	–
CCCN(C(=O)c1cccs1)c1ccc2nc(CC)n(CC3CCN(c4ccccc4-c4nn[nH]n4)CC3)c(=O)c2c1 [Compound A-243, N-[2-ethyl-4-oxo-3-[[1-[2-(2H-tetrazol-5-yl)phen-yl]-4-piperidyl]-methyl]quinazolin-6-yl]-N-propyl-thiophene-2-carbox-amide]	< 30	> 50	0.159	–	–	11.5
CCc1nc2ccc(N(Cc3cccnc3)C(=O)c3cccs3)cc2c(=O)n1CC1CCN(c2ccccc2-c2nn[nH]n2)CC1 [Compound A-244, N-[2-ethyl-4-oxo-3-[[1-[2-(2H-tetrazol-5-yl)phenyl]-4-piperidyl]methyl]quinazolin-6-yl]-N-(3-pyridylmethyl)thiophene-2-carboxamide]	< 30	> 50	0.104	–	–	6.62
CCc1nc2ccc(N(Cc3ccccc3)C(=O)c3cccs3)cc2c(=O)n1CC1CCN(c2ccccc2-c2nn[nH]n2)CC1 [Compound A-246, N-benzyl-N-[2-ethyl-4-oxo-3-[[1-[2-(2H-tetrazol-5-yl)phenyl]-4-piper-idyl]methyl]quin-azolin-6-yl]thio-phene-2-carbox-amide]	< 30	30 to 50	0.102	–	–	26.7
CCc1nc2ccc(N(Cc3ccccc3Cl)C(=O)c3cccs3)cc2c(=O)n1CC1CCN(c2ccccc2-c2nn[nH]n2)CC1 [Compound A-248, N-[(2-chlorophenyl)methyl]-N-[2-ethyl-4-oxo-3-[[1-[2-(2H-tetrazol-5-yl)phenyl]-4-piperidyl]methyl]quinazolin-6-yl]thiophene-2-carboxamide]	< 30	< 30	0.048	–	–	40.1
